# Source: patent publication US6541486B1, “Bis-benzimidazole compounds and analogs thereof for inhibiting cell death” (Elan Pharma International Ltd., priority 1999, dated 2003)
# Entries after “also recorded” stand apart in the source; their conditions may differ.
# What was measured:
# [1] = test system: Oxygen/Glucose Deprived Cardiac Myocytes; assay: Protection of oxygen/glucose deprived cardiac myocytes; format: cell-based
# Method: The hypoxic cardiac myocyte (CM) has been used as a simplified model of myocardial ischemia. In the present study, cultures of CM's were deprived of oxygen and glucose for 8 hours, then also exposed to 24-48 hours reoxygenation. It is known that reperfusion of the damaged areas can be one of the major mechanisms of myocardial cellular injury. […] Cell survival was quantitated as described above.
# [2] = test system: rat middle cerebral artery occlusion (MCAO) model of focal ischemia; assay: MCAO in vivo stroke model: ischemic, infarct and edema volumes; settings: for Reducing post-ischemic damage (in words): rats; for % Protection, Cortical infarct volume / % Protection, Cortical penumbra / % Protection, Edema / % Protection, Subcortical infarct volume / % Protection, Subcortical penumbra / % Protection, Total infarct volume / % Protection, Total ischemic volume: rat
# Method: Compounds were administered by either an IV (intravenous) or ICV (intracerebroventricular) route in the MCAO model, described above and in Example 18. The extent of ischemic damage in the absence and presence of compound was assessed by visualization of coronal brain slices. Conversion of 2,3,5-triphenyltetrazolium chloride (TTC) to formazan in normal tissue produces a red color. Unstained areas (white) constitute the infarct, whereas pink areas between white (infarction) and red stained areas (normal brain) define the ischemia penumbra. Preliminary studies confirmed that tissues stained pink contained mixed populations of living and dead cells.
# Results are also illustrated in FIGS. 2-3 for ICV administration and FIGS. 4-5 for IV administration.
# Adult male Wistar rats weighing 310-380 g were used. Animals were fasted overnight but allowed free access to water. Anesthesia was induced and maintained with 3% isoflurane in […]. Systemic blood pressure was recorded before, during and after middle cerebral artery occlusion (MCAO) and immediately before administering the test compound. Subjects received test compound SNX 912, 5 mg/kg ICV pre-MCAO, or 25 mg/kg IV immediately following reperfusion, after two hours MCAO, as compared to control subjects, which received deionized water. Temperature was controlled and recorded before, during and following reperfusion. After reperfusion, temperature was measured every hour for 4 hrs post-reperfusion.
# All animals were subjected to 2 hr of MCAO using the intraluminal filament technique of Koizume et al. (1986) as modified by Zhao et al. (1994). A midline surgical incision was made to expose the right common, external and internal carotid arteries. The common cartotid, external carotid and occipital arteries were tightly ligated, and the internal carotid artery was temporarily closed with a microvascular clip. A small incision was made in the common carotid artery and a nylon monofilament was inserted into the internal carotid artery through the common carotid artery. The filament was then carefully advanced 19 mm cephalad to occlude the middle cerebral artery at its site of origin within the Circle of Willis. […] After 2 hr of MCAO, the animals were re-anesthetized with 1.5% halothane, and the occlude filament was withdrawn to allow reperfusion.
# Because MCAO by the intraluminal filament technique can give rise to intra- and post-ischemia hyperthermia, rectal temperature was controlled by external heating and cooling for 6 hrs after initiating MCAO. Rectal temperature was maintained at 37.5+/−0.5° C.
# Animals were killed 24 hr post-reperfusion by CO2 asphyxiation. Following asphyxiation, the brains were quickly removed and chilled in ice cold 0.9% saline for 10 min. To visualize the extent of ischemic damage, seven 2 mm thick coronal slices were cut from each brain with a tissue slicer beginning with 1 mm posterior to the anterior pole. The slices were immersed in a 0.9% saline solution containing 1.0% 2,3,5-tripheyltetrazolim chloride (TTC) and incubated at 37° C. for 30 minutes, and observed for the presence of formazan (red), which is produced by the reduction of TTC by endogenous dehydrogenase activity in normal living tissues.
# [3] = test system: OGD cells (retinal ganglion cells); assay: Increase in survival of OGD cells at fixed concentrations (similar assay); format: cell-based, rat
# [4] = test system: Oxygen/Glucose Deprived RGCs (retinal ganglion cells); assay: Protection of oxygen/glucose deprived (OGD) retinal ganglion cells, EC50; settings: overall judgement
# Method: Each compound was added to control cells and to cells deprived of oxygen and glucose for the time period from 30 minutes prior to OGD, during OGD, and for 24 and 48 hours after OGD.
# RGCs from postnatal day 8 (P8) Sprague-Dawley rats were purified as previously described (Barres et al., 1988; Meyer-Franke et al., 1995). Purified retinal ganglion cells were plated onto tissue culture plastic precoated with poly-D-lysine and merosin, and cultured in serum-free Neurobasal medium (Gibco) containing various supplements.
# Approximately 5,000 purified RGCs were cultured in 96-well plates (Falcon), precoated with poly-D-lysine (PDL, 70 kD, 10 mg/ml; Sigma) and merosin (2 mg/ml; Gibco). The RGCs were cultured in serum-free Neurobasal medium (Brewer et al., 1993; Gibco) containing Sato-Bottenstein and B27 (Gibco) supplement, insulin (Sigma, 5 mg/ml), brain-derived neurotrophic factor (BDNF, 25 ng/ml; Preprotech), ciliary neurotrophic factor (CNTF, 20 ng/ml; Preprotech) and forskolin (10 mM, Sigma). The percentage of surviving cells was assessed at 3, 7, and 14 days by the MTT assay.
# Retinal ganglion cells were grown in 96-well plates for 5 days in serum-free medium as described above. On the sixth day cells were washed three times in a salt solution, e.g. Earle's balanced salt solution (EBSS, Gibco), containing glucose for control cells, and lacking glucose for test cells (oxygen/glucose-deprived cells). Control cells were further incubated in a 5% CO2 incubator while OGD cells were deprived of oxygen in an anaerobic chamber (for 3 hours). Test compounds were added to control cells and OGD cells for the time period from 30 minutes prior to OGD, during OGD, and for 24 and 48 hours after OGD.
# After 3 hours OGD, control and test cells were transferred to growth medium with glucose and cultured an additional 48 hours in a 5% CO2 incubator, followed by a determination of cell viability using MTT, propidium iodide and annexin assays.
# For the cell viability assay, MTT was added to culture and incubated at 37° C. for 1 hr. […] Viable and dead cells are counted by bright field microscopy at various times, e.g. 24, 48, or 72 hours after oxygen/glucose and/or growth factor deprivation. All values are reported as the mean (average) +/− the standard error of the mean (SEM) for at least three replicate cultures.
# [5] = 8 hrs OGD / 24 hrs reoxygenation
# [6] = 8 hrs OGD / 48 hrs reoxygenation
# [7] = IV (25 mg/kg) immediately following reperfusion after 2 h MCAO
structure (smiles),measurement,setting,value
"Nc1cccc2[nH]c(Cc3nc4ccccc4[nH]3)nc12 [SNX 912, 2-(benzimidazol-2′-yl)methyl-4-amino benzimidazole]",EC50,[1]; [5],310 nM
same,TI (therapeutic index),[1]; [5],>30
same,EC50,[1]; [6],55 nM
same,TI (therapeutic index),[1]; [6],>200
same,Protection of cardiac myocytes from apoptotic cell death (in words),"[1]; compared to untreated OGD cells, dose dependent, nanomolar concentrations",protected the cardiac myocytes from apoptotic cell death; also recorded: effective
same,Reducing post-ischemic damage (in words),[2]; 5 mg/kg ICV,effective
same,Reducing post-ischemic damage (in words),[2]; 25 mg/kg IV,effective
same,"% Protection, Cortical infarct volume",[2]; ICV (5 mg/kg) pre-MCAO,76%
same,"% Protection, Cortical penumbra",[2]; ICV (5 mg/kg) pre-MCAO,30%
same,"% Protection, Edema",[2]; ICV (5 mg/kg) pre-MCAO,80%
same,"% Protection, Subcortical infarct volume",[2]; ICV (5 mg/kg) pre-MCAO,75%
same,"% Protection, Subcortical penumbra",[2]; ICV (5 mg/kg) pre-MCAO,7%
same,"% Protection, Total infarct volume",[2]; ICV (5 mg/kg) pre-MCAO,76%
same,"% Protection, Total ischemic volume",[2]; ICV (5 mg/kg) pre-MCAO,47%
same,"% Protection, Cortical infarct volume",[2]; [7],53%
same,"% Protection, Cortical penumbra",[2]; [7],10%
same,"% Protection, Edema",[2]; [7],26%
same,"% Protection, Subcortical infarct volume",[2]; [7],55%
same,"% Protection, Subcortical penumbra",[2]; [7],18%
same,"% Protection, Total infarct volume",[2]; [7],55%
same,"% Protection, Total ischemic volume",[2]; [7],32%
same,Percent Increase in Survival over OGD Control Cells,[3]; Concn 0.001 μM,++ (50%-100% increase)
same,Percent Increase in Survival over OGD Control Cells,[3]; Concn 0.01 μM,++ (50%-100% increase)
same,Percent Increase in Survival over OGD Control Cells,[3]; Concn 0.1 μM,++ (50%-100% increase)
same,Percent Increase in Survival over OGD Control Cells,[3]; Concn 1 μM,+++ (>100% increase)
same,Percent Increase in Survival over OGD Control Cells,[3]; Concn 10 μM,+++ (>100% increase)
same,"Effectiveness in protecting OGD RGCs (in words, from Tables 5 and 6)",[4],more effective overall than the unsubstituted compound
